Experimental data published in patent publication US9855277B2, “Use of 5H-dibenz/b,f/azepine-5-carboxamide derivatives for treating fibromyalgia” (BIAL—PORTELA & CA, S.A., priority 2009, dated 2018).

Tests used:
[1] = Plasma bioanalysis in CCI mice after oral ESL; assay type: in vivo; details: oral ESL
[2] = tested on: dorsal horn neurones of CCI mice; assay: Spontaneous activity of dorsal horn neurones in CCI mice (extracellular recording); assay type: in vivo; details: ESL 100 mg/kg i.p.; for spontaneous activity of dorsal horn neurones, firing rate: 5 preparations
Excerpt: Adult male BL CB F1 mice, weighing 25-30 g at the time of surgery and 26-38 g at the time of electrophysiological experiments, were used. The baseline paw withdrawal threshold (PWT) was examined using a series of graduated von Frey hairs (see below) on 3 consecutive days before surgery and re-assessed on the 7th and on the 14th days after surgery, before electrophysiological recording. The animals were killed by an overdose of pentobarbitone on completion of the study. The chronic constriction injury (CCI) model was prepared following the standard protocols described previously (Bennett and Xie, 1988). Mice were anaesthetised and the lateral side of the left thigh was shaved and sterilized with 75% ethanol. A small incision of approximately 0.5 cm was made parallel to the femur. The muscle was carefully separated to expose the sciatic nerve. Three loose ligatures were placed on the sciatic nerve with 5-0 suture silk thread at approximately 1 mm intervals. The wound was closed in layers with suture silk 4-0 and the animals were placed in a recovery chamber with the temperature controlled and set at 30° C. A dose of amoxicillin (0.02 mL, 3 mg) was routinely injected i.p. after surgery to prevent infection. The animals were returned to their home cages after complete recovery of consciousness and freedom of movement. For the first 2 days after surgery, the animals were closely monitored at least twice daily and subsequently, at least once daily until compound testing. The baseline PWT was tested for 3 consecutive days before surgery and re-assessed on the 7th and 14th days after surgery to monitor the development of mechanical allodynia. Only those mice showing significant mechanical allodynia (PWT≦0.2 g) were selected for subsequent electrophysiological experiments. After behavioural validation, the mice were re-anaesthetised, body temperature was monitored and controlled within a physiological range via a thermo-blanket system, and the electrocardiogram (ECG) was routinely monitored through a pair of stainless steel needles inserted into the left fore-paw and right hind-paw. A laminectomy was carried out to expose the L2-L6 segments of the spinal cord. In some experiments, spinalisation at the C2-C3 level or section of the L4-L6 dorsal roots of the left side at a site near the root entry zone to the spinal cord, was performed. A protective pool was formed and filled with warm mineral oil to cover the spinal cord and the sectioned roots. Extracellular unitary recordings of spontaneous activity from the spinal dorsal horn neurones were achieved by using a carbon microelectrode driven by an electrode manipulator. The electrical signals were recorded through a CED micro-1401 interface to a PC for later off-line analysis. Recording from a dorsal horn neurone displaying spontaneous electrical discharge was undertaken for a period of at least 10 min for control and 40 min after either vehicle or ESL administration. The suspension was prepared with a vehicle containing 30% DMSO in 0.9% sodium chloride to a dose concentration of 50 mg/mL. The vehicle and ESL were injected intraperitoneally at a volume of 2 mL/kg through a needle connected with a 1 mL syringe placed prior to the experiment. Each animal received only one treatment of either vehicle or ESL (100 mg/kg). Spontaneous activity was counted as firing rate per minute. An average firing rate over 5 min periods, recorded consecutively immediately prior to vehicle injection or ESL was used as control (and standardized as 100%). The average firing rate over a 5 min period recorded 30-35 min after vehicle or ESL injection was used to quantify firing rate following treatment and compared with the control level. Due to the high level of variation in frequency of spontaneous ectopic discharge from preparation to preparation; all data were standardized relative to control. All data were expressed as mean±SEM. A paired Student's t-test (two-way) was used to compare different time points in the same group. […]

Mice (NMRI) = assay: Formalin paw test; assay type: in vivo; details: 300 mg/kg p.o.
Description: The method, which detects analgesic activity, follows that described by Wheeler-Aceto et al (see […]-ACETO, H. & A., C. (1991), “Standardization of the rat paw formalin test for the evaluation of analgesics”, Psychopharmacology, 104, 35-44). Mice (NMRI) were given an intraplantar injection of 5% formalin (25 μl) into the posterior left paw. […] The time spent licking was counted for 15 minutes, beginning 15 minutes after injection of formalin. 10 mice were studied per group. The test was performed blind. ESL and carbamazepine (CBZ) were tested at the doses of 10, 30, 100 and 300 mg/kg p.o., and oxcarbazepine (OXC) and R-Lic were tested at the doses of 100 and 300 mg/kg p.o., administered 60 minutes before the test (i.e. 45 minutes before formalin), and compared with a vehicle control group in each experiment. Morphine (64 mg/kg p.o.), administered under the same experimental conditions, was used as reference substance.

[3] = tested on: patients with partial epilepsy; assay: MADRS, open label extension of phase 3 study, Trial 1; assay type: in vivo, human
Description: (§1) During an open label extension of a phase 3 study with ESL, the effect on depressive symptoms in patients taking at least one other anti-epileptic drug was assessed using the Montgomery Åsberg Depression Rating Scale (MADRS) at the end of treatment (after one year or after early discontinuation) and results compared with those at baseline. Patients were treated with ESL dosages in the range of 400-1500 mg, the majority being treated once daily with 800 mg ESL.

[4] = tested on: patients with partial epilepsy; assay: MADRS, open label extension of phase 3 study, Trial 2; assay type: in vivo, human
Description: as §1, with “During a further” for “During an”

[5] = long-term open-label adjunctive therapy, partial epilepsy

CC(=O)O[C@H]1Cc2ccccc2N(C(N)=O)c2ccccc21 [ESL, S-(−)-10-acetoxy-10,11-dihydro-5H-dibenz/b,f/azepine-5-carboxamide]
main metabolite in plasma [1]: mainly to eslicarbazepine | time to complete metabolism after administration (plasma) [1]: ≤ 1 h | spontaneous activity, % of control ([2]; dorsal root (L4-L6) sectioned CCI mice, 30-35 min, P<0.01 vs vehicle): 29.5±13.3 % of control | spontaneous activity of dorsal horn neurones, average firing rate ([2]; dorsal root (L4-L6) sectioned CCI mice, 30-35 min, control 378.1±85.4, 8 preparations): 97.5±39.0 imps/min | spontaneous activity, % of control level ([2]; intact CCI mice, 30-35 min, P<0.01 vs control): 26.3±10.1 % of control | spontaneous activity of dorsal horn neurones, firing rate ([2]; intact CCI mice, 30-35 min after injection, control 780.7±462.5): 113.6±43.9 imps/min | spontaneous activity, % of control levels ([2]; spinalised (C2-C3) CCI mice, 30-35 min, P<0.001): 14.8±6.8 % of control | spontaneous activity of dorsal horn neurones, firing rate ([2]; spinalised (C2-C3) CCI mice, 30-35 min, control 504.5±286.1, P>0.05): 31.2±12.7 imps/min | licking in the formalin test at 300 mg/kg (Mice (NMRI)): abolished licking | MADRS total score at end of treatment ([3]; ITT population (166 patients), baseline 10.5, ESL 400-1500 mg, mostly 800 mg once daily, one year or early discontinuation, p<0.05): 7.8 | depressive symptoms (MADRS), change from baseline [3, 5]: Statistically and clinically significant improvement from baseline | MADRS apparent sadness, mean relative improvement ([4]; ITT population (264 patients)): 34% | MADRS concentration difficulties, mean relative improvement ([4]; ITT population (264 patients)): 30% | MADRS inability to feel, mean relative improvement ([4]; ITT population (264 patients)): 38% | MADRS inner tension, mean relative improvement ([4]; ITT population (264 patients)): 31% | MADRS lassitude, mean relative improvement ([4]; ITT population (264 patients)): 38% | MADRS pessimistic thoughts, mean relative improvement ([4]; ITT population (264 patients)): 26% | MADRS reduced appetite, mean relative improvement ([4]; ITT population (264 patients)): 57% | MADRS reduced sleep, mean relative improvement ([4]; ITT population (264 patients)): 48% | MADRS reported sadness, mean relative improvement ([4]; ITT population (264 patients)): 40% | MADRS suicidal thoughts, mean relative improvement ([4]; ITT population (264 patients)): 56% | MADRS apparent sadness, mean relative improvement ([4]; PP population (232 patients)): 38% | MADRS concentration difficulties, mean relative improvement ([4]; PP population (232 patients)): 33% | MADRS inability to feel, mean relative improvement ([4]; PP population (232 patients)): 35% | MADRS inner tension, mean relative improvement ([4]; PP population (232 patients)): 34% | MADRS lassitude, mean relative improvement ([4]; PP population (232 patients)): 39% | MADRS pessimistic thoughts, mean relative improvement ([4]; PP population (232 patients)): 31% | MADRS reduced appetite, mean relative improvement ([4]; PP population (232 patients)): 62% | MADRS reduced sleep, mean relative improvement ([4]; PP population (232 patients)): 53% | MADRS reported sadness, mean relative improvement ([4]; PP population (232 patients)): 41% | MADRS suicidal thoughts, mean relative improvement ([4]; PP population (232 patients)): 60% | depressive mood as assessed by MADRS, change from baseline [4, 5]: statistically significant improvement from baseline
